Results on one compound are retold here after article PMC3491834 (EMBO Molecular Medicine, 2012).

The structures appear in SMILES notation.

This assay addresses InhA, NADH-dependent enoyl-[Acyl-Carrier-Protein] reductase (Mycobacterium tuberculosis, UniProt P9WGR1). In words: enzyme turnover, NADH oxidation at […] nm. It counts as biochemical.

Sequence of InhA, NADH-dependent enoyl-[Acyl-Carrier-Protein] reductase (P9WGR1 whole entry, looked up): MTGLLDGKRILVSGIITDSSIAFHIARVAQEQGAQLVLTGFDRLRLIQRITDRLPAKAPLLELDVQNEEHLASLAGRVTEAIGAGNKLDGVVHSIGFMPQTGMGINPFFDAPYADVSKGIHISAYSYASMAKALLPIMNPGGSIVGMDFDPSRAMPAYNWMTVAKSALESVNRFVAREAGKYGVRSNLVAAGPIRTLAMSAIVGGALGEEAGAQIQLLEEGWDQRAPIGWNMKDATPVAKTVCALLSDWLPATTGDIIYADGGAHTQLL

Turning to `CCCCC/C=C/C(=O)SCCNC(=O)CCNC(=O)[C@H](O)C(C)(C)COP(=O)(O)OP(=O)(O)OC[C@H]1O[C@@H](n2cnc3c(N)ncnc32)[C@H](O)[C@@H]1OP(=O)(O)O` [OcCoA, 2-trans-octenoyl-CoA], the “enzyme turnover, NADH oxidation at 340 nm” value was “All three enzymes were catalytically active and oxidized NADH in the presence of the substrate 2-trans-octenoyl-CoA (OcCoA)”.
